# Measured values from US9631001B2, “Peptide antagonists of the vasopressin-2 receptor” (COMMISSARIAT A L'ENERGIE ATOMIQUE ET AUX ENERGIES …, priority 2012, dated 2017).
# Key:
# [1] = target: V2R (Homo sapiens, UniProt P30518); experiment: AVP-induced MAP kinase phosphorylation (HTRF) in tsA cells expressing V2R; assay type: cell-based; set-up: expressed in transfected cells
# Procedure: Eight hours and twenty-four hours later, the cells were starved with serum-free medium and stimulated another twenty-seven hours later. […] In a 384 well plate, to 16 μl of lysed cells first 2 μl of the antibody against phosphorylated ERK labeled with acceptor fluorophore (AC-ERK-P-d2 emitting at 665 nm) and then 2 μl of the antibody against total ERK labeled with donor fluorophore (AC-ERK-K emiting at 620 nm) were added. When ERK phosphorylation occurs, the acceptor in close vicinity of the donor is able to emit at 665 nm producing the FRET signal. The increase in the 665/620 ratio corresponds to the increase in MAP kinase phosphorylation. Two hours later, RT-FRET was measured on a laser-based HTRF® reader Rubystar with Rubystar software (BMG LABTECH).
# [2] = system: CD1^pcy/pcy mice; experiment: Diuretic and urine osmolarity effect, single and increasing doses; assay type: in vivo, mouse
# Procedure: The toxin was dissolved in 0.9% NaCl at a concentration of 1 mg/ml. Adult CD1^pcy/pcy (Takahashi et al., J. Urol., 1986, 135, 1280-1283, and J. Am. Soc. Nephrol., 1991, 1, 980-989 and Olbrich et al., Nature Genetics, 2003, 34, 455-459) and adult C57BL/6 mice were injected intraperitoneally and subcutaneously with the toxin at doses of 1, 0.1 and 0.01 μmol toxin/kg of body weight. One, three and five days after the first injection the mice were kept for 24 hours in metabolic cages. The collected urine was centrifuged for 30 minutes at 14,000 rpm. Urine osmolality (mOs/kg) was determined with a Knauer osmometer, urine volume (μl) was measured with a pipette.
# [3] = i.p. or s.c. injection at 1 μmol/kg, 24 h urine, vs basal state
# Chain of V2R (P30518 whole entry): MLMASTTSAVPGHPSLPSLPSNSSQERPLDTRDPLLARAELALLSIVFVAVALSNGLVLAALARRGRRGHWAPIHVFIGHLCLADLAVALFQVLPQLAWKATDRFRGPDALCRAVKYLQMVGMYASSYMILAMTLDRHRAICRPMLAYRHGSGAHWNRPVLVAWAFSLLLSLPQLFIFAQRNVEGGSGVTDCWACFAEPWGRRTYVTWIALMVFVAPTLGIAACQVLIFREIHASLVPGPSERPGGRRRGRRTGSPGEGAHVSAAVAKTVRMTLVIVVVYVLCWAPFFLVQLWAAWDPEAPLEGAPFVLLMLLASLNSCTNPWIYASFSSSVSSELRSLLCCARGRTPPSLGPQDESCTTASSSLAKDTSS
smiles,measurement,setting,value
CC[C@H](C)[C@@H]1NC(=O)[C@H]([C@@H](C)O)NC(=O)[C@H](CO)NC(=O)[C@H](Cc2ccccc2)NC(=O)[C@H](CCCNC(=N)N)NC(=O)[C@H](CC(N)=O)NC(=O)[C@H](C)NC(=O)[C@H](CC(N)=O)NC(=O)CNC(=O)[C@H](CCCCN)NC(=O)[C@@H]2CSSC[C@@H]3NC(=O)[C@@H]4CCCN4C(=O)CNC(=O)[C@@H]4CCCN4C(=O)[C@H](CCCCN)NC(=O)[C@H](C(C)C)NC(=O)[C@@H]4CCCN4C(=O)[C@H](CC(C)C)NC(=O)[C@H](CC(N)=O)NC(=O)[C@@H](NC(=O)[C@H](Cc4ccccc4)NC(=O)[C@H](CO)NC(=O)[C@@H]4CCCN4C(=O)[C@@H](N)CCCNC(=N)N)CSSC[C@@H](C(=O)N[C@H](C(=O)NCC(=O)O)C(C)C)NC(=O)[C@H]([C@@H](C)O)NC(=O)[C@H](CCCNC(=N)N)NC(=O)[C@H](CCCNC(=N)N)NC(=O)[C@H](CSSC[C@H](NC(=O)[C@H](CCCCN)NC(=O)[C@H](CC(N)=O)NC(=O)[C@H]([C@@H](C)O)NC(=O)[C@H](CCCCN)NC(=O)[C@H](CCC(N)=O)NC(=O)[C@H](CO)NC(=O)[C@H](Cc4ccc(O)cc4)NC(=O)[C@H](Cc4ccc(O)cc4)NC(=O)[C@H](Cc4ccccc4)NC(=O)[C@H](C)NC(=O)[C@H](CO)NC(=O)[C@H](Cc4ccccc4)NC(=O)[C@H](Cc4ccccc4)NC(=O)CNC(=O)[C@H](CC(N)=O)NC3=O)C(=O)N[C@@H](Cc3c[nH]cn3)C(=O)N[C@@H](CO)C(=O)N[C@@H](Cc3ccccc3)C(=O)N[C@@H]([C@@H](C)O)C(=O)N[C@@H](Cc3ccc(O)cc3)C(=O)NCC(=O)NCC(=O)N2)NC(=O)[C@H](CCCCN)NC(=O)[C@H](CCC(=O)O)NC1=O [U-Da2a],Kb,[1],0.126 µM
same,dose sufficient to observe the maximal effect,[2]; i.p.,0.1 µmol/kg
same,urine osmolarity,[2]; [3],strong decrease in osmolarity
same,urine volume,[2]; [3],strong increase in urine volume
same,diuretic effect at increasing doses,"[2]; i.p., 1, 0.1 and 0.01 μmol/kg",dose-dependent diuretic effect
same,urine osmolarity at increasing doses,"[2]; i.p., 1, 0.1 and 0.01 μmol/kg",decrease in urine osmolarity
